The results in this text go back to patent US20200131227A1, “POLYPEPTIDE WITH TUMOUR BINDING ACTIVITY” (RUPRECHT-KARLS-UNIVERSITÄT HEIDELBERG, priority 2017, published 2020).

Data set [1] concerns metastasized pancreatic cancer. The data set is described as follows: PET/CT and scintigraphy of pancreatic cancer patient. Format: in vivo, human. The settings on record: 1 day after 6.5 GBq. The procedure:
(§1) PET/CT scans of tumor patients and body scintigraphy were performed as described in Example 1.

For data set [2], the system named is HNO223 cells. The data set is described as follows: In vitro binding on HNO223 cells. Format: cell-based, human. The settings on record: Example 2, 10 min to 480 min (FIG. 16). Here is the method: For binding studies, 2.5×10^5 to 4×10^5 cells were seeded in 6-well plates and cultivated for 48 hours. Cells were incubated for 60 min with 1 mL serum-free medium containing the ^125I-labeled peptide (see above). For competition experiments, cells were simultaneously exposed to unlabeled (10^-4 M to 10^-10 M) and ^125I-labeled peptides. After three washing steps with PBS (pH 7.4) the cells were lysed with 0.5 mL of 0.3 M NaOH. Experiments concerning the internalization, kinetics and efflux were additionally performed with ^177Lu-DOTA-SFITGv6. […] To continue with the efflux experiment radioactive medium was replaced by non-radioactive medium and cells were incubated again for 60 to 240 min before measuring radioactivity of the cell lysates and the medium. […] Radioactivity was determined in a gamma counter and calculated as percentage of the applied dose per 1×10^6 cells. […]
For the assessment of the peptide binding capacity in vitro, 2.5-4×10^5 cells were seeded into 6-well plates and cultivated for 48 h. ^125I-labeled peptide resuspended in 1 mL serum-free medium was added and incubated for either 10 min or 60 min with or without different concentrations of unlabeled peptide (10^−4-10^−11 M). […] The internalization was assessed after exposure of the cells to ^177Lu-DOTA-labeled peptides for 10, 30, 60, 120, and 240 min at 37° C. […]

In data set [3] the test system is ovarian cancer. The data set is described as follows: Scintigraphy of ovarian cancer patients. Format: in vivo, human. The note with it: 1 day after 6 GBq and 7.4 GBq. Here is the method: as §1
In data set [4] the test system is HNSCC cell lines HNO97, HNO399, and HNO223. The format is binding, human. Here is the method: For the assessment of the peptide binding capacity in vitro, 2.5-4×10^5 cells were seeded into 6-well plates and cultivated for 48 h. ^125I-labeled peptide resuspended in 1 mL serum-free medium was added and incubated for either 10 min or 60 min with or without different concentrations of unlabeled peptide (10^−4-10^−11 M). Afterwards, cell monolayers were washed three times with 1 mL phosphate-buffered saline (pH 7.4) to remove unbound peptide and the cells were harvested with 1.4 mL lysis buffer (0.3 M NaOH). To evaluate kinetic properties the cells were exposed to ^177Lu-DOTA-labeled peptides for 10, 30, 60, 120, and 240 min, respectively, and lysed as described. For the efflux experiments the cells were incubated with ^177Lu-DOTA-labeled peptides for 60 min. Thereafter, radioactive medium was replaced by non-radioactive medium and cell monolayers were incubated for additional 60, 120, and 240 min and afterwards lysed as described earlier. The internalization was assessed after exposure of the cells to ^177Lu-DOTA-labeled peptides for 10, 30, 60, 120, and 240 min at 37° C. Unspecifically bound peptide was removed from the surface by incubation with 1 M glycine-HCl solution (pH 2.2) for 10 min. The monolayer cell was rinsed with PBS and cells were lysed as described before. Radioactivity was determined in a y-counter and calculated as percentage of the applied dose per 1×10^6 cells. […]

Data set [5] concerns the target ITGαvβ3 (Homo sapiens, UniProt P05106+P06756). The data set is described as follows: Surface plasmon resonance assay (SPR), ITGαvβ3. Format: binding. Here is the method: (§2) Assessment of the binding affinity was performed on a BiaCore X100 (GE Healthcare). To avoid denaturation of the heterodimer during amide activation ITGαvβ6 and ITGαvβ3, respectively, were used as analytes and SFITGv6 was immobilized at its N-terminus on a C1 sensor Chip (BR-1005-35, GE Healthcare) using a manual amine coupling protocol. Briefly, after activation of the sensor chip surface with a solution of EDC 0.4 M/NHS 0.1 M for 5 min a 100 μM peptide dissolved in HBS-EP running buffer (0.1 M HEPES, 30 mM EDTA, 1.5 M NaCl, 0.5% surfactant P20, pH 7.2) was immobilized with a contact time of 30 sec until a loading level of 18 response units (RU) was obtained. […] The SPR-sensogram data were evaluated with the BiaCore evaluation software. The dissociation constant (KD) was determined by a 1:1 Langmuir model fit of the SPR-sensograms.
as §2, with “SFLAP3” for “peptide”, “to obtain” for “until”, “12” for “18”, “(RU).” for “(RU) was obtained.”, “SPR sensogram” for “SPR-sensogram”, “SPR sensograms.” for “SPR-sensograms.”

Data set [6] has as its system HNO97 cells. The format is binding, human. The settings on record: 48 h. The procedure: For binding studies, 2.5×10^5 to 4×10^5 cells were seeded in 6-well plates and cultivated for 48 hours. Cells were incubated for 60 min with 1 mL serum-free medium containing the ^125I-labeled peptide (see above). For competition experiments, cells were simultaneously exposed to unlabeled (10^-4 M to 10^-10 M) and ^125I-labeled peptides. After three washing steps with PBS (pH 7.4) the cells were lysed with 0.5 mL of 0.3 M NaOH. Experiments concerning the internalization, kinetics and efflux were additionally performed with ^177Lu-DOTA-SFITGv6. To evaluate kinetics and efflux HNO97 cells were incubated for different time intervals (10 min to 480 min) and 60 min, respectively, with ^177Lu-DOTA-SFITGv6 and lysed as described. To continue with the efflux experiment radioactive medium was replaced by non-radioactive medium and cells were incubated again for 60 to 240 min before measuring radioactivity of the cell lysates and the medium. For internalization experiments the cells were exposed to ^177Lu-DOTA-SFITGv6 for different time intervals (10 to 240 min) at 37° C. and 4° C. After three washing steps with PBS the cells were incubated with 1 mL of glycine-HCl 50 mmol/L in PBS (pH 2.8) for 10 min at RT to remove the surface bound activity. Then, cells were washed with 3 mL of ice-cold PBS and lysed as described. Radioactivity was determined in a gamma counter and calculated as percentage of the applied dose per 1×10^6 cells. Experiments were performed three times, and three repetitions per independent experiment were acquired.

For data set [7], the system named is tumor-free lymph nodes. The data set is described as follows: Histochemical peptide staining of carcinoma-free lymph nodes. Set-up: species or system human. Here is the method:
Staining with the biotinylated PEG(12)-SFITGv6 peptide was performed on acetone-fixed cryosections (5 μm) of tumor tissues after blocking of unspecific binding using the Avidin/Biotin Blocking Kit (SP-2001, Vector Laboratories). A stock solution of the lyophilized peptide was prepared by dilution in 5% aqueous DMSO. Slices were incubated overnight at 4° C. with 10^-5 M peptide concentration in antibody diluent (DAKO). Detection of bound peptide was carried out with the Vectastain Elite ABC Kit (PK-6100, Vector Laboratories) according to manufacturer's protocol. Peptide specificity was ensured by a scrambled (GRD) PEG(12)-SFITGv6 derivate, the somatostatin receptor ligand DOTATOC and negative controls (without peptide or primary antibody) Staining results were assessed by bright field microscopy (BX50) with the SC30 camera and the cell Sense software (all Olympus).

Data set [8] has as its target ITGαvβ6 (Homo sapiens, UniProt P06756+P18564). The data set is described as follows: Surface plasmon resonance assay (SPR), ITGαvβ6. The settings on record: peptide immobilized, integrin as analyte, 1:1 Langmuir fit. Format: binding. The procedure:
as §2
Assessment of the binding affinity was performed on a BiaCore X100 (GE Healthcare). To avoid denaturation of the heterodimer during amide activation ITGαvβ6 and ITGαvβ3, respectively, were used as analytes and SFITGv6 was immobilized at its N-terminus on a C1 sensor Chip (BR-1005-35, GE Healthcare) using a manual amine coupling protocol. […] The SPR sensogram data were evaluated with the BiaCore evaluation software. The dissociation constant (KD) was determined by a 1:1 Langmuir model fit of the SPR sensograms.
(In general: Surface plasmon resonance follows binding to a sensor surface in real time, without labels.)

Where a SMILES comes first, the peptide text is derived from it. Bridges are numbered along the chain shown (N, C = ends). The star is where a group is joined. DOTA = O=C(O)CN1CCN(CC(=O)O)CCN(CC(=O)*)CCN(CC(=O)O)CC1

ITGαvβ3, sequence (P06756 31-992 limits assumed): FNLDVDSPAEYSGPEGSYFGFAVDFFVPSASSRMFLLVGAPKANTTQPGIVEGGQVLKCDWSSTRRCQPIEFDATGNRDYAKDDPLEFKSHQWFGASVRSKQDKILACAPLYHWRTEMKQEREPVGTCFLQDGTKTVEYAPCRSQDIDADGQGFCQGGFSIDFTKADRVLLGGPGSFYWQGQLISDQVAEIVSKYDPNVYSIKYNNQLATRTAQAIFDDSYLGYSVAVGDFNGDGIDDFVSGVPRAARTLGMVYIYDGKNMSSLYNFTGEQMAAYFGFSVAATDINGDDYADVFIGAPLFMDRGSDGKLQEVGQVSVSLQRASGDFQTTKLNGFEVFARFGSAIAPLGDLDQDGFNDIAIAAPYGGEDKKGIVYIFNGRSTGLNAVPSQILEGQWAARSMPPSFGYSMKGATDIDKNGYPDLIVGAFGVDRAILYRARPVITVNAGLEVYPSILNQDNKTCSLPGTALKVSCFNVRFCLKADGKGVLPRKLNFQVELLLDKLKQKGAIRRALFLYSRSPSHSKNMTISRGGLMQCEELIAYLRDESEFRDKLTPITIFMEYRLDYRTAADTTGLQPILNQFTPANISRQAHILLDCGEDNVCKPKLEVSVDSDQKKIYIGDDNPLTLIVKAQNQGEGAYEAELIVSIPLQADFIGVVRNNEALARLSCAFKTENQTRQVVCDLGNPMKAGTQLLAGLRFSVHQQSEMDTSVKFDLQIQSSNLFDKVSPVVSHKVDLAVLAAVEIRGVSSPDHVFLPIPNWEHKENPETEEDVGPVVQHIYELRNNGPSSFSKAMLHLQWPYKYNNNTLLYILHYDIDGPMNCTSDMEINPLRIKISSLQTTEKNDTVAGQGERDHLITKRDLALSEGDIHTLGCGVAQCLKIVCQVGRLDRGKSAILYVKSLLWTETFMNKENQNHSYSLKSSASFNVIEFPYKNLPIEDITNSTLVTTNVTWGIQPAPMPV
ITGαvβ3, sequence (P05106 27-718 limits assumed): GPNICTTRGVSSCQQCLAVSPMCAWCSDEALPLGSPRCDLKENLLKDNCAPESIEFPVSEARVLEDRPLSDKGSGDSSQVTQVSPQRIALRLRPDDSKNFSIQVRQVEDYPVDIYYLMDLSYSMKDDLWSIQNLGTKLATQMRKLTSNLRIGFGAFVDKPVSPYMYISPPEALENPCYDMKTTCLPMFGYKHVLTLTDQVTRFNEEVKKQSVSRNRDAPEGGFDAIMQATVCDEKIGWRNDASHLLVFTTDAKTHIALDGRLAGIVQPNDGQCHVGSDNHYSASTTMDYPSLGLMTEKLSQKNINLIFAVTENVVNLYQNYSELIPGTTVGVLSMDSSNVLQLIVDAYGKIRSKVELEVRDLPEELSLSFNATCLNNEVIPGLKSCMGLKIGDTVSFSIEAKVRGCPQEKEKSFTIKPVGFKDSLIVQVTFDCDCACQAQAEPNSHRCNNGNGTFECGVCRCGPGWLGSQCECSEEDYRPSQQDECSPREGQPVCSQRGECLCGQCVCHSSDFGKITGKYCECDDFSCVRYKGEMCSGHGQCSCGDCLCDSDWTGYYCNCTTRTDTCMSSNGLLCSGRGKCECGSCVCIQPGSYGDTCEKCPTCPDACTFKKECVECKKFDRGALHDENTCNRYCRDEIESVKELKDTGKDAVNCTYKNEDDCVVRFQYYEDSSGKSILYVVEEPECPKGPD

Consider `CC(C)C[C@@H]1NC(=O)[C@H](CC(=O)O)NC(=O)CNC(=O)[C@H](CCCNC(=N)N)NC(=O)CNC(=O)[C@H]([C@@H](C)O)NC(=O)[C@@H](NC(=O)[C@H](CCCNC(=N)N)NC(=O)CNC(=O)CN2CCN(CC(=O)O)CCN(CC(=O)O)CCN(CC(=O)O)CC2)CSSC[C@@H](C(=O)N[C@@H](Cc2ccc(O)cc2)C(=O)N2CCC[C@H]2C(=O)N[C@@H](CC(=O)O)C(N)=O)NC(=O)[C@H](CC(C)C)NC(=O)[C@H](CCCNC(=N)N)NC(=O)CNC1=O` [^177Lu-DOTA-SFLAP3, metal not drawn] ({DOTA}-GRCTGRGDLGRLCYPD-NH2; disulfide 3-13; N-terminus and C-terminus assumed), for which the scintigraphic accumulation entry in data set [1] was “accumulation in the metastatic sites”; in data set [3], “moderate to good accumulation in the metastases”. Moreover, the “maximum binding capacity of ^177Lu-DOTA-labeled peptide (kinetics)” value in data set [2] amounted to 9.66%.
What is called IC50 is the midpoint of a concentration-inhibition curve. By Kd is commonly meant the equilibrium constant for the complex coming apart. A lower Kd goes with higher affinity. With `CSCC[C@@H]1NC(=O)[C@H](CC(C)C)NC(=O)[C@H](CC(=O)O)NC(=O)CNC(=O)[C@H](CCCNC(=N)N)NC(=O)[C@H](Cc2ccccc2)NC(=O)[C@H]([C@@H](C)O)NC(=O)[C@@H](NC(=O)[C@H](CCCNC(=N)N)NC(=O)CN)CSSC[C@@H](C(=O)N[C@@H](Cc2ccc(O)cc2)C(=O)N2CCC[C@H]2C(=O)N[C@@H](CC(=O)O)C(=O)O)NC(=O)[C@H](CC(C)C)NC(=O)[C@H](CCC(N)=O)NC1=O` [SFITGv6, NH2-G-R-C1-T-F-R-G-D-L-M-Q-L-C1-Y-P-D-COOH] (H-GRCTFRGDLMQLCYPD-OH; disulfide 3-13), the IC50 in data set [4] worked out at 14.1 nM; in data set [6], 16.1 nM. The “lower affinity for ITGαvβ3 than for ITGαvβ6” value in data set [5] (SPR) was “ten-fold lower affinity”. Besides, the Kd came out at 185 ± 0.8 nM in data set [5] (peptide immobilized, integrin as analyte, 1:1 Langmuir fit) and 14.8 ± 26 nM in data set [8]. Moreover, the “histochemical peptide staining result” value in data set [7] was “did not show any SFITGv6-specificy”.
